15 molecules from publication PMC9556845 (Frontiers in Microbiology, 2022) can be followed below.

Common to all, as to type: biochemical
One assay concerns the target IDH1 R132h (Homo sapiens, UniProt O75874, R132H). Briefly: Isocitrate dehydrogenase inhibition assay (NADPH/α-KG, WST-8 readout). The settings on record: for pIC50: room temperature 60 min, absorbance 450 nm, repeated three times. As for the experimental part:
DMSO was used to configure the compounds into different concentrations as test samples. 2 mm NADPH (3 μl) and 1 m α-Kg (0.1 μl) was added to IDH1 buffer (pH 6.5; 96 μl) solution as reaction substrate in the reaction system. Then, the test samples (2.0 μl), IDH1 R132h (0.4 μl), PMS (0.1 μl) and 15 mM WST-8 (1.0 μl) were successively added to the above mixture and reacted at room temperature for 60 min. AGI-5198 was used as positive control and DMSO as the negative control. The absorption peak of 450 nm was detected by microplate reader. The test was repeated three times for each test samples, and the IC50 was calculated by GraphPad Prism.
We have learned that isocitrate dehydrogenase (IDH) gene mutations are closely related to the occurrence and development of tumors ([Fujii et al., 2016]). IDH mutations mainly occur in malignant tumors such as glioma, acute myeloid leukemia, chondrosarcoma, and intrahepatic cholangiocarcinoma. IDH mutation ultimately promote the occurrence and development of tumors ([Gondim et al., 2019]). Therefore, inhibition of IDH1 R132h activity was screened using the above compounds. AGI-5198 was used as a positive control in this experiment with the IC50 value of 0.04 μg/ml.
(Tetrazolium dyes change colour on reduction, which living cells bring about.)

In another assay the target is T1, CD45 (Homo sapiens, UniProt P08575).
T1 sequence (P08575 26-1306): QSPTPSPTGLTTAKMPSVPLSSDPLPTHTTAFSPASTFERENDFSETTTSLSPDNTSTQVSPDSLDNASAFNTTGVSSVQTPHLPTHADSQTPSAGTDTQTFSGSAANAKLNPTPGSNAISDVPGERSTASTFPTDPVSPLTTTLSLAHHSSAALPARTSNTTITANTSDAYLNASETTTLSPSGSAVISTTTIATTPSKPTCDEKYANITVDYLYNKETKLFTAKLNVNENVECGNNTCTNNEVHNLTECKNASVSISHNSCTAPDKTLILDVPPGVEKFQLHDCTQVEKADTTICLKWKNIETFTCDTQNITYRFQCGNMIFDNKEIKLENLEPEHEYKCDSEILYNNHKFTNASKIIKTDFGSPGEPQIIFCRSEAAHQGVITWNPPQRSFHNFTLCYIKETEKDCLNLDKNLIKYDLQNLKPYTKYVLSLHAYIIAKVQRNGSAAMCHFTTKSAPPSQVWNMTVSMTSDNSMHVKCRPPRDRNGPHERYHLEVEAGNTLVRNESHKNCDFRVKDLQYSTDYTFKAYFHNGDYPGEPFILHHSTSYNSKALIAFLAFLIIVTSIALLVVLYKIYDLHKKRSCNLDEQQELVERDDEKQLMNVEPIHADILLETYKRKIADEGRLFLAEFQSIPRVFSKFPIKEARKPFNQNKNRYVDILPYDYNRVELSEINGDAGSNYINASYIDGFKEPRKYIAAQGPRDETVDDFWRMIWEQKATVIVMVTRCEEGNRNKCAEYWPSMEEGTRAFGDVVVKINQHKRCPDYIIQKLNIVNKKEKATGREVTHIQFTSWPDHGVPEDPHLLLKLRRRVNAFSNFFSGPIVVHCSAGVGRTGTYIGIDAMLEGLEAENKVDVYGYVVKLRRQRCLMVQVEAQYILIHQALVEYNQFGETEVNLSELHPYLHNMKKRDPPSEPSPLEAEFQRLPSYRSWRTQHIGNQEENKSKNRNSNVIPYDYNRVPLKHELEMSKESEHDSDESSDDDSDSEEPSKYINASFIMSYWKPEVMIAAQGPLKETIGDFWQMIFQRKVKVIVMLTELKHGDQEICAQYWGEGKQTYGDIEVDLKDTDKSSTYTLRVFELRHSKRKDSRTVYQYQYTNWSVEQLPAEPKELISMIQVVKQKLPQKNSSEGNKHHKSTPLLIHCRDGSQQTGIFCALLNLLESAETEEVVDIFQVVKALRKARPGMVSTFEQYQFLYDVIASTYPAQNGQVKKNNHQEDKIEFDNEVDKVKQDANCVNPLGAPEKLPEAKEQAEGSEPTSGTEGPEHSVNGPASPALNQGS
Briefly: Inhibition of protein tyrosine phosphatase (PTPs) assay, pNPP substrate: CD45. The settings on record: for IC50: read-out: IC50 CD45 (converted). From the text: (§1) Protein tyrosine phosphatase (PTPs) plays an important role in many human threatening diseases, such as PTP1B, an effective target for the treatment of type II diabetes; CD45, an effective target for the treatment of leukemia; and TCPTP, a reliable target for the treatment of cancer involved in multiple signaling pathways ([Ruddraraju and Zhang, 2017]). Nitrophenyl phosphate (pNPP) was used as substrate to determine the enzyme inhibition test. Fifty microliter reaction buffer (pH 6.5) including 50 mM HEPES, 100 mM NaCl, 1 mM EDTA, and 1 mM dithiothreitol (DTT) and compounds was added to 96 well plates, and incubate at room temperature for 15 min. Further, 50 μl reaction buffer with 50 mM pNPP was added and incubated at 37°C for 60 min. Na3VO4 was used as positive control and DMSO as the negative control. The phosphatase activity was determined by absorbance measured at 405 nm. The test was repeated three times for each compound. The IC50 value was derived from three independent experiments.
(§2) Protein tyrosine phosphatase (PTPs) plays an important role in many human threatening diseases, such as PTP1B, an effective target for the treatment of type II diabetes; CD45, an effective target for the treatment of leukemia; and TCPTP, a reliable target for the treatment of cancer involved in multiple signaling pathways ([Zhang, 2003]; [Vintonyak et al., 2009]).

The next assay deals with T2, PTP1B (Homo sapiens, UniProt P18031).
T2 sequence (P18031 1-435): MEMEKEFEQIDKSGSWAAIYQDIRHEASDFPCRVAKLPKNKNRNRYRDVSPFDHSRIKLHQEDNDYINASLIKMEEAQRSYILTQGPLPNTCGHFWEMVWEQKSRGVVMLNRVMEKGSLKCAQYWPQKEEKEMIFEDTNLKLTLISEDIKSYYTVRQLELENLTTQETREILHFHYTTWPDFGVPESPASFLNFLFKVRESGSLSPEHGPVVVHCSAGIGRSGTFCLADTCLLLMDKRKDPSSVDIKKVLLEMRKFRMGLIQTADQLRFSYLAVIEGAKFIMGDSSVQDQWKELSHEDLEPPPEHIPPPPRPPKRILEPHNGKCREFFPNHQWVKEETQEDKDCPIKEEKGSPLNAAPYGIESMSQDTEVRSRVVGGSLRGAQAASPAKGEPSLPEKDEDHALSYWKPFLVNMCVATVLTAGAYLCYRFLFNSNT
The experiment in a line: Inhibition of protein tyrosine phosphatase (PTPs) assay, pNPP substrate: PTP1B. To be noted: for inhibitory activity against PTP1B (in words): in vitro, compared with Na3VO4; for IC50: pNPP substrate, pH 6.5, 37°C 60 min, absorbance 405 nm, three independent experiments, read-out: IC50 PTP1B (converted). The procedure: Nitrophenyl phosphate (pNPP) was used as substrate to determine the enzyme inhibition test. Fifty microliter reaction buffer (pH 6.5) including 50 mM HEPES, 100 mM NaCl, 1 mM EDTA, and 1 mM dithiothreitol (DTT) and compounds was added to 96 well plates, and incubate at room temperature for 15 min. Further, 50 μl reaction buffer with 50 mM pNPP was added and incubated at 37°C for 60 min. […] The phosphatase activity was determined by absorbance measured at 405 nm. The test was repeated three times for each compound. The IC50 value was derived from three independent experiments.

The target in the next assay is T3, TCPTP (Homo sapiens, UniProt P17706).
T3 sequence (P17706 1-415): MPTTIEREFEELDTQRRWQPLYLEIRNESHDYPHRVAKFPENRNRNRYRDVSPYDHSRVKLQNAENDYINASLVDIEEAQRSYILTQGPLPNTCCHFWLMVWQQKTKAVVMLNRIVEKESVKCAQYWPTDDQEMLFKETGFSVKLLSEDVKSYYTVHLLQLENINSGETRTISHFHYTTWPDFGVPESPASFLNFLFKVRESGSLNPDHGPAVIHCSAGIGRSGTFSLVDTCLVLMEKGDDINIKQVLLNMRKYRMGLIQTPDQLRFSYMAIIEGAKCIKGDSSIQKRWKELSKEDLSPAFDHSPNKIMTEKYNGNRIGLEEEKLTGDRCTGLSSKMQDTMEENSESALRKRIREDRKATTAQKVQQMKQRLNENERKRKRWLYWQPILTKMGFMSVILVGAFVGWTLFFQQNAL
Briefly: Inhibition of protein tyrosine phosphatase (PTPs) assay, pNPP substrate: TCPTP.
From the text: as §1, §2

Where [1] appears, read: pNPP substrate, pH 6.5, 37°C 60 min, absorbance 405 nm, three independent experiments.
[2] abbreviates: pNPP substrate, pH 6.5, 37°C 60 min, absorbance 405 nm, three independent experiments, read-out: IC50 TCPTP.

One may read the pIC50 as −log10 of the IC50, conventionally taken in molar units. What is called IC50 is the midpoint of a concentration-inhibition curve.

pIC50: −log10 of the molar value. “Also recorded” adds a separate entry of the source. Like-named read-outs stand apart in the source and are kept apart here.

Chain of IDH1 R132h (O75874 whole entry R132H): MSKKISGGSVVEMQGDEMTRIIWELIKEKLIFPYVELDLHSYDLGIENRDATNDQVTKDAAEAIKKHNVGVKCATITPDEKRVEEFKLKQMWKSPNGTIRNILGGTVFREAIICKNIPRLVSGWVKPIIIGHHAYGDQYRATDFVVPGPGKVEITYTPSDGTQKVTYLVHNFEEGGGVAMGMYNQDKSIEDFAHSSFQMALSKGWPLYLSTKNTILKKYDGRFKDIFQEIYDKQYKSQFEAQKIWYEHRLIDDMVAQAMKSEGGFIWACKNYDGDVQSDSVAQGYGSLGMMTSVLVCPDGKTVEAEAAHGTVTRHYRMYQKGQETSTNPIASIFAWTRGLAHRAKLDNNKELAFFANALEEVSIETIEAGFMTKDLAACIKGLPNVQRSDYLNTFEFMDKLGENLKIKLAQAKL

`Cc1ccccc1C(C(=O)NC1CCCCC1)N(C(=O)Cn1ccnc1C)c1cccc(F)c1` (centres unmarked) [AGI-5198, reference compound] showed a pIC50 at IDH1 R132h of 7.06.

Consider `COc1cc(O)c2c(c1)C1(CC(O)C(O)C=C1C)OC2=O` (centres unmarked) [Compound 1, Alternafurone A], for which, on IDH1 R132h, the “inhibitory activity against IDH1 R132h (in words)” value is listed as “inhibitory activities” and the pIC50 was 4.00.

In the case of `COc1cc(O)c2c(c1)C1(CC(O)C(O)C=C1C)OC2=O` (centres unmarked) [Compound 2, Alternafurone B], on IDH1 R132h, the “inhibitory activity against IDH1 R132h (in words)” value was “inhibitory activities” and the pIC50 is 4.18.

For the molecule `COc1cc(O)c2c(c1)C1=CC3(CC(O)C(=O)O3)C(O)CC1(C)OC2=O` (centres unmarked) [Compound 3, Alternapyrone M], the pIC50 on IDH1 R132h is less than 3.83.

For `COC(=O)C1CC2(O)CC3(C)OC(=O)c4c(O)cc(OC)cc4C3=CC2(O)O1` (centres unmarked) [Compound 4, Alternapyrone N], on IDH1 R132h, the “inhibitory activity against IDH1 R132h (in words)” value was “inhibitory activities” and the pIC50 is 4.44.

On to `Cc1cc(O)cc2oc(=O)c3c(O)cc(O)cc3c12` [Compound 6, alternariol], for which the pIC50 is 4.65 against CD45, 4.21 against PTP1B and 4.52 against TCPTP. Further, at CD45 (in vitro, compared with Na3VO4), the “inhibitory activity against CD45 (in words)” value is recorded as “definite inhibitory activity”. Further, at TCPTP (in vitro, compared with Na3VO4), the “inhibitory activity against TCPTP (in words)” value was “definite inhibitory activity”.

Take `COc1cc(O)c2c(=O)oc3cc(O)cc(C)c3c2c1` [Compound 7, alternariol 9-methyl ether]: the values for the pIC50 at CD45, on PTP1B and against TCPTP were 4.14, 3.86 and 3.68, respectively.

As for `COc1cc(O)c2c(c1)C1C[C@H](O)[C@@H](O)C[C@@]1(C)OC2=O` (some centres unmarked) [Compound 9, 3-epidihydroaltenuene A], the IC50 at CD45 (setting [1]) was greater than 340 µM. Moreover, at PTP1B, the “inhibitory activity against PTP1B (in words)” value was “specific and significant inhibition; also recorded: significant inhibitory activity”; the IC50 is 3.3 µM. In addition, the pIC50 on TCPTP (setting [2]) is less than 3.47.

For the molecule `COc1cc(O)c2c(c1)C1=C[C@H](O)[C@@H](O)C[C@]1(C)OC2=O` [Compound 10, 5-hydroxyepialtenuene], the IC50 is greater than 342 µM at CD45 (setting [1]) and 156 µM on PTP1B. Also, the pIC50 on TCPTP (setting [2]) is less than 3.47.

With `COc1cc(O)c2c(c1)C1=C[C@@H](O)[C@@H](O)C[C@]1(C)OC2=O` [Compound 11, 5′-epialtenuene], the IC50 on CD45 (setting [1]) was greater than 342 µM; at PTP1B, 187 µM. For the same molecule, the pIC50 on TCPTP (setting [2]) was less than 3.47.

Consider `COc1cc(O)c2c(c1)C1=CC(O)C(O)CC1(C)OC2=O` (centres unmarked) [Compound 12, 4′-epialtenuene], for which the IC50 is greater than 342 µM on CD45 (setting [1]) and 25.5 µM on PTP1B. Further, at PTP1B, the “inhibitory activity against PTP1B (in words)” value was “inhibitory activity”. The pIC50 at TCPTP (setting [2]) was less than 3.47.

Consider `COc1cc(O)cc(C2=C(C)C[C@@H](O)C2=O)c1` [Compound 14, (+)-nigrosporaol A], for which the values for the IC50 on CD45 (setting [1]) and at PTP1B were greater than 427 µM and 383 µM, respectively. In addition, the negative-log IC50 (pIC50) at TCPTP (setting [2]) was less than 3.37.

`Cc1cc(=O)c2c(C)cc(O)cc2o1` [Compound 17, 2,5-dimethyl-7-hydroxychromone]: the IC50 was 104 µM on CD45 (setting [1]) and greater than 526 µM on PTP1B. The pIC50 on TCPTP (setting [2]) was less than 3.28.

Turning to `Cc1cc(O)cc2oc(CO)cc(=O)c12` [Compound 19, 7-hydroxy-2-hydroxymethyl-5-methyl-4H-chromen-4-one], the figures for the IC50 at CD45 (setting [1]) and on PTP1B were 120 µM and greater than 485 µM, respectively. For the same molecule, the pIC50 on TCPTP (setting [2]) was less than 3.31.

`[Na+].[Na+].[Na+].[O]=[V]([O-])([O-])[O-]` [Na3VO4, reference compound]: at CD45 (setting [1]), the “IC50 CD45” value came to 0.36 ± 0.09 mg/L. Moreover, on TCPTP (setting [1]), the “IC50 TCPTP” value is 0.44 ± 0.11 mg/L.
